{"source": "paper PMC4512758", "about": "(Analytical biochemistry, 2015)", "key": {"[1]": {"target": "DIPY binding site of TSPO (Homo sapiens, UniProt P30536)", "sequence (P30536 whole entry)": "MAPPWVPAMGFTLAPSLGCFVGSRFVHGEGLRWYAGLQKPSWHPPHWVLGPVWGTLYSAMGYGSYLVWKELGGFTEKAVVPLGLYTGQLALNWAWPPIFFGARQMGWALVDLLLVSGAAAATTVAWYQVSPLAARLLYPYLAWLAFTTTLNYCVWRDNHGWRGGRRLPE", "assay": "Frontal displacement on MMAC-"}, "TSPO [2]": {"target": "TSPO", "conditions": "read-out: Reported Ki using marker ligand PK; cited from earlier work"}, "[3]": {"target": "mitochondrial permeability transition pore (mPTP)", "assay": "Frontal affinity chromatography on MMAC-", "format": "binding, human", "conditions": "read-out: Kd on MMAC-(U87MG); mPTP ligand; ammonium acetate [10 mM, pH 7.4]"}, "mPTP": {"target": "mPTP", "conditions": "cited from earlier work"}, "[4]": {"target": "Translocator protein (TSPO) (Homo sapiens, UniProt P30536)", "sequence (P30536 whole entry)": "as above", "assay": "Frontal affinity chromatography", "format": "binding", "conditions": "for Breakthrough time: MMAC (U87MG), ammonium acetate [10 mM"}, "TSPO [5]": {"target": "T1, TSPO (Homo sapiens, UniProt P30536)", "T1 sequence (P30536 whole entry)": "as above", "assay": "Frontal affinity chromatography on MMAC-OT", "format": "binding"}, "TSPO [6]": {"target": "T1, TSPO", "assay": "Single displacement study for ranking TSPO ligands on MMAC-", "format": "binding", "conditions": "MMAC-(U87MG)"}, "SUR [7]": {"target": "SUR", "conditions": "read-out: Reported Kd; SUR ligand; cited from earlier work"}, "SUR [8]": {"target": "SUR", "assay": "Frontal affinity chromatography on MMAC-OT", "format": "binding, human", "conditions": "read-out: Kd on MMAC-OT (HEK-293); SUR ligand; open tubular column"}, "[9]": {"target": "sulfonylurea receptor (SUR)", "assay": "Frontal affinity chromatography on MMAC-", "format": "binding, human", "conditions": "read-out: Kd on MMAC-(U87MG); SUR ligand; ammonium acetate [10 mM, pH 7.4]"}}, "note": "Values joined by “and” are separate entries in the source; they are usually repeats but may differ in a detail not shown here. Identical values can stand only once. Like-named read-outs stand apart in the source and are kept apart here."}
{"smiles": "C=C(C)[C@H]1Cc2c(ccc3c2O[C@@H]2COc4cc(OC)c(OC)cc4[C@@H]2C3=O)O1", "note": "[Rot, rotenone]", "values": [{"measurement": "Ki", "setting": "[1]", "result": "3.4 ± 1.27", "unit": "µM"}, {"measurement": "Ki", "setting": "TSPO [2]", "result": 20.9, "unit": "µM"}]}
{"smiles": "O=C(O)Cc1ccccc1Nc1c(Cl)cccc1Cl", "note": "[Diclofenac, diclofenac]", "values": [{"measurement": "Kd", "setting": "[3]", "result": "1.2 ± 0.19", "unit": "µM"}, {"measurement": "Reported Kd (mPTP induction)", "setting": "mPTP", "result": "induces mPTP at low micromolar range [1, 37]"}]}
{"smiles": "OCCN(CCO)c1nc(N2CCCCC2)c2nc(N(CCO)CCO)nc(N3CCCCC3)c2n1", "note": "[DIPY, dipyridamole]", "values": [{"measurement": "Breakthrough time", "setting": "[4]; pH 5.9]", "result": 100, "unit": "min"}, {"measurement": "Breakthrough time", "setting": "[4]; pH 5.9] with 10% methanol", "result": 50, "unit": "min"}, {"measurement": "Breakthrough time", "setting": "[4]; pH 7.4]", "result": 200, "unit": "min"}, {"measurement": "Kd", "setting": "TSPO [5]", "result": "0.76 ± 0.25", "unit": "µM"}, {"measurement": "Ki", "setting": "TSPO [2]", "result": "0.68 µM and 0.679 µM"}]}
{"smiles": "CN1C(=O)CN=C(c2ccccc2F)c2cc([N+](=O)[O-])ccc21", "note": "[Flu, flunitrazepam]", "values": [{"measurement": "Kd", "setting": "[4]", "result": "0.29 ± 0.06", "unit": "µM"}, {"measurement": "Increase of breakthrough time of DIPY", "setting": "[1]; MMAC-(U87MG), concentrations greater than 0.5 μM", "result": "10-15%"}, {"measurement": "Displacement of DIPY", "setting": "[1]; MMAC-(U87MG), concentrations lower than 0.5 μM", "result": "did not significantly displace DIPY"}, {"measurement": "Ki", "setting": "TSPO [2]", "result": 0.211, "unit": "µM"}, {"measurement": "Effect on retention of DIPY in single displacement study", "setting": "TSPO [6]; 2.875 μM compound with 0.125 μM DIPY", "result": "increased the retention of DIPY"}, {"measurement": "Increase of retention of 0.125 μM DIPY", "setting": "TSPO [6]; 2.875 μM compound, pH 5.9", "result": "~ 15%"}]}
{"smiles": "COc1ccc(Cl)cc1C(=O)NCCc1ccc(S(=O)(=O)NC(=O)NC2CCCCC2)cc1", "note": "[Glibenclamide, glibenclamide]", "values": [{"measurement": "Kd", "setting": "SUR [7]", "result": "0.36 ± 0.05", "unit": "µM"}, {"measurement": "Kd", "setting": "SUR [8]", "result": "0.99 ± 0.52", "unit": "µM"}, {"measurement": "Kd", "setting": "[9]", "result": "0.79 ± 0.39", "unit": "µM"}]}
{"smiles": "CCC1=C(C)c2cc3[nH]c(cc4[nH]c(cc5nc(cc1n2)C(C)=C5CC)c(C)c4CCC(=O)O)c(CCC(=O)O)c3C", "note": "[MIX, mesoporphyrin IX]", "values": [{"measurement": "Ki", "setting": "[1]; read-out: Ki for DIPY binding site on MMAC(U87MG), 0.5 μM DIPY as marker, ammonium acetate [10 mM, pH 5.9]", "result": "1.47 ± 0.12", "unit": "µM"}, {"measurement": "Ki", "setting": "TSPO [2]", "result": 0.65, "unit": "µM"}]}
{"smiles": "C=CC1=C(C)c2cc3[nH]c(cc4nc(cc5[nH]c(cc1n2)c(C)c5CCC(=O)O)C(CCC(=O)O)=C4C)c(C)c3C=C", "note": "[PIX, protoporphyrin IX]", "values": [{"measurement": "Ki", "setting": "[1]", "result": "3.33 ± 1.35", "unit": "µM"}, {"measurement": "Ki", "setting": "TSPO [2]", "result": 2.92, "unit": "µM"}]}
